Here are results for ten compounds from patent US4886806A, “Flavone-3-carboxylic acids compounds and pharmaceutical compositions containing them” (Kali-Chemie Pharma GmbH, priority 1987, dated 1989).

Data set [1] has as its system oxygen radical-forming activity of peritoneal exudate cells (PEC) of mice. The data set can be described thus: Spontaneous CL and induced CL chemiluminescence test: inhibition of oxygen radical liberation from peritoneal exudate cells (30 min preincubation). The data set is classed as cell-based. Details: concentration or dose not given beside the values. Particulars: for Inhibition in vitro of the oxygen radical liberation, Chemiluminescence Test % inhibition, Ind. CL: induced CL, after ZyC3b activation; for Inhibition in vitro of the oxygen radical liberation, Chemiluminescence Test % inhibition, Spnt. CL: spontaneous CL, before ZyC3b. The protocol: 1. To determine the inhibiting effect on the oxygen radical-forming activity of inflamed cells, the in vitro inhibition of the release of oxygen radicals from activated peritoneal exudate cells (=PEC) of mice was determined in the chemiluminescence (CL) test according to the method of Mueller-Peddinghaus (Int. J. Immunopharmac. 6, 455-466 (1984)). […] The intensity of the chemiluminescence is a measurement of the oxygen radical content in the suspension and thus the degree of activity of the inflamed cells. In this, three functionally different parameters are detected, the spontaneous CL, the induced CL and the peak CL. The spontaneous CL and the induced CL on the one hand and the peak CL on the other hand differ from each other because in the first two parameters the test substances are in contact with the cells for a 30 minute preincubation period before the inflammation irritant is added, whereas with the peak CL the cells are first stimulated, and the test substance is added at the peak of their activity. The measurement of the spontaneous CL thus detects the influence of the test substance on the relative rest activity of inflamed cells, the induced CL represents the effect of the test substances on the activatability of the cells and the inhibition of the peak CL indicates the effect of the test substances on the maximum activity of the inflamed cells. 1.1 Production of PEC suspension used in the test. In order to induce the PEC formation, female mice of 20-25 g body weight were each injected i.p. with 2 ml of a 3% solution of thioglycollate in sterile isotonic sodium chloride solution. Twenty four hours after the thioglycollate injection the cells, which predominantly consisted of polymorphonuclear leucocytes, were recovered by washing out of the abdominal cavity and washed twice. As cell culture medium there was added a commercially available solution under the designation RPMI 1640 (pH 7.2) (produced by Flow Laboratories, […], Germany), which contains 10% fetal calf serum (FCS, produced by Seromed GmbH, Munich, Germany) 18 μmol/l sodium bicarbonate and 2 μmol/l L-glutamine. The cell pellets of four animals each time were resuspended in cell culture medium, collected together and the suspension was made up to 2×10^6 cells per ml with cell culture medium. The cell suspensions were kept under ice cooling until their use the same day. 1.2 Production of the complement opsonized zymosan (=ZyC3 b) suspension used for activation. 200 mg zymosan (glycoprotein mixture isolated from the cell walls of brewer's yeast, Sacchomyces […], produced by Sigma Chemical Co., Munich, Germany) were suspended in 10 ml phosphate buffer solution according to Dulbecco (produced by Flow Laboratories, […], Germany), well stirred and heated for thirty minutes in a water bath to 100° C. After cooling, it was centrifuged for five minutes at 4° C. and at 600 ×g and the supernatant was discarded. The sediment was resuspended in 50 ml human serum and incubated for thirty minutes at 37° C. in a shaking water bath. Then it was centrifuged for five minutes at 600 ×g and 420 C., the supernatant decanted and the sediment washed with phosphate buffer solution. The working suspension of 8×10^-3 g ZyC3 b/ml was produced from the sediment by dilution with phosphate buffer solution (Mueller-Peddinghaus et al., Zbl. Vet. Med. B. 30, 559-575). 1.3 Chemiluminescence (CL) measurement (Peak-CL). […] At the end of this preincubation phase, 100 μl lucigenin were added, and in the course of the subsequent sixteen minute incubation phase the spontaneous CL parameter was determined with two measuring points. Then 100 μl ZyC3 b+100 μl phosphate buffer were added, and during the course of the subsequent twenty-four minute cell activation the induced CL parameter was measured with three measuring points. All measurements were determined twice. The parameters spontaneous CL and induced CL were determined on the same day with two separate cell pools.

The next data set relates to male mice. Nature of the data set: Determination of the minimum toxic dose. The format is in vivo. Particulars: max. dose 300 mg/kg, 24 h. The protocol:
3. Determination of the minimum toxic dose.
Male mice of 20 to 25 g weight were given maximal doses of 300 mg/kg of test substance per os. The animals were carefully watched over a period of three hours for toxicity symptoms. Over a period of twenty-four hours after administration, all symptoms and deaths were recorded. Associated symptoms were also watched and recorded. If death or strongly toxic symptoms were noted, further mice were given increasingly lower doses. The lowest dose which brought about death or strongly toxic symptoms was reported as the minimum toxic dose.

In data set [2] the test system is oxygen radical-forming activity of activated peritoneal exudate cells (PEC) of mice. Nature of the data set: Peak chemiluminescence (CL) test: inhibition of oxygen radical liberation from activated peritoneal exudate cells. The format is cell-based. Particulars: Mus musculus, 10^-4 Mol substance/l, added at peak of cell activity, read-out: Inhibition in vitro of the oxygen radical liberation, Chemiluminescence Test % inhibition, Pk. CL. Here is the method:
1. To determine the inhibiting effect on the oxygen radical-forming activity of inflamed cells, the in vitro inhibition of the release of oxygen radicals from activated peritoneal exudate cells (=PEC) of mice was determined in the chemiluminescence (CL) test according to the method of Mueller-Peddinghaus (Int. J. Immunopharmac. 6, 455-466 (1984)). […] The intensity of the chemiluminescence is a measurement of the oxygen radical content in the suspension and thus the degree of activity of the inflamed cells. In this, three functionally different parameters are detected, the spontaneous CL, the induced CL and the peak CL. The spontaneous CL and the induced CL on the one hand and the peak CL on the other hand differ from each other because in the first two parameters the test substances are in contact with the cells for a 30 minute preincubation period before the inflammation irritant is added, whereas with the peak CL the cells are first stimulated, and the test substance is added at the peak of their activity. The measurement of the spontaneous CL thus detects the influence of the test substance on the relative rest activity of inflamed cells, the induced CL represents the effect of the test substances on the activatability of the cells and the inhibition of the peak CL indicates the effect of the test substances on the maximum activity of the inflamed cells. 1.1 Production of PEC suspension used in the test. In order to induce the PEC formation, female mice of 20-25 g body weight were each injected i.p. with 2 ml of a 3% solution of thioglycollate in sterile isotonic sodium chloride solution. Twenty four hours after the thioglycollate injection the cells, which predominantly consisted of polymorphonuclear leucocytes, were recovered by washing out of the abdominal cavity and washed twice. As cell culture medium there was added a commercially available solution under the designation RPMI 1640 (pH 7.2) (produced by Flow Laboratories, […], Germany), which contains 10% fetal calf serum (FCS, produced by Seromed GmbH, Munich, Germany) 18 μmol/l sodium bicarbonate and 2 μmol/l L-glutamine. The cell pellets of four animals each time were resuspended in cell culture medium, collected together and the suspension was made up to 2×10^6 cells per ml with cell culture medium. The cell suspensions were kept under ice cooling until their use the same day. 1.2 Production of the complement opsonized zymosan (=ZyC3 b) suspension used for activation. 200 mg zymosan (glycoprotein mixture isolated from the cell walls of brewer's yeast, Sacchomyces […], produced by Sigma Chemical Co., Munich, Germany) were suspended in 10 ml phosphate buffer solution according to Dulbecco (produced by Flow Laboratories, […], Germany), well stirred and heated for thirty minutes in a water bath to 100° C. After cooling, it was centrifuged for five minutes at 4° C. and at 600 ×g and the supernatant was discarded. The sediment was resuspended in 50 ml human serum and incubated for thirty minutes at 37° C. in a shaking water bath. Then it was centrifuged for five minutes at 600 ×g and 420 C., the supernatant decanted and the sediment washed with phosphate buffer solution. The working suspension of 8×10^-3 g ZyC3 b/ml was produced from the sediment by dilution with phosphate buffer solution (Mueller-Peddinghaus et al., Zbl. Vet. Med. B. 30, 559-575). 1.3 Chemiluminescence (CL) measurement (Peak-CL). The PEC suspension was divided into samples of 100 μl each, placed in test tubes, and these were incubated for ten minutes at a temperature of 3720 C. in a measurement device (Chemiluminescence analyzer, Laboratorium Prof. Berthold, Wildbad, Germany). Then in order to amplify the chemiluminescence, 100 μl lucigenin solution was added (final concentration 1.54×10^-4 mol/l) and incubated for 16 more minutes. The cells were then activated by the addition of 100 μl of the ZyC3 b suspension produced as described in section 1.2 plus 100 μl phosphate buffer solution. […]

`COc1cc(-c2oc3ccccc3c(=O)c2C(=O)NCCCN2CCOCC2)cc(OC)c1OC` [Example 46]: in data set [1], the “Inhibition in vitro of the oxygen radical liberation, Chemiluminescence Test % inhibition, Ind. CL” value came out at 25% and the “Inhibition in vitro of the oxygen radical liberation, Chemiluminescence Test % inhibition, Spnt. CL” value is listed as 52%. Also, the “Minimal toxic dose mg/kg mouse p.o.” value in the data set on male mice was above 300 mg/kg. Also, in data set [2], the inhibition at 100 µM (stock) was determined as 11%.
Take `CCC(=O)Oc1cc(-c2oc3ccccc3c(=O)c2C(=O)N2CCN(c3ccccn3)CC2)cc(OC(=O)CC)c1OC(=O)CC` [Example 56]: in data set [1], the “Inhibition in vitro of the oxygen radical liberation, Chemiluminescence Test % inhibition, Ind. CL” value is on record as 70% and the “Inhibition in vitro of the oxygen radical liberation, Chemiluminescence Test % inhibition, Spnt. CL” value is on record as 52%. The inhibition at 100 µM (stock) in data set [2] came out at 37%.
Regarding `COc1cc(-c2oc3ccccc3c(=O)c2C(=O)OCCN2CCN(c3ccccn3)CC2)cc(OC)c1OC` [Example 47], in data set [1], the “Inhibition in vitro of the oxygen radical liberation, Chemiluminescence Test % inhibition, Ind. CL” value was 76% and the “Inhibition in vitro of the oxygen radical liberation, Chemiluminescence Test % inhibition, Spnt. CL” value came out at 78%. In addition, the “Minimal toxic dose mg/kg mouse p.o.” value in the data set on male mice is on record as 100 mg/kg. Besides, in data set [2], the inhibition at 100 µM (stock) is 70%.
Regarding `O=C(NCCN1CCCC1)c1c(-c2ccccc2)oc2ccccc2c1=O` [Example 20b], in data set [1], the “Inhibition in vitro of the oxygen radical liberation, Chemiluminescence Test % inhibition, Ind. CL” value is 43% and the “Inhibition in vitro of the oxygen radical liberation, Chemiluminescence Test % inhibition, Spnt. CL” value is 72%. In addition, the “Minimal toxic dose mg/kg mouse p.o.” value with male mice is listed as 100 mg/kg. Also, the inhibition at 100 µM (stock) in data set [2] was 27%.
Consider `COc1ccc(-c2oc3ccccc3c(=O)c2C(=O)N2CCN(C)CC2)cc1` [Example 28], for which, in data set [1], the “Inhibition in vitro of the oxygen radical liberation, Chemiluminescence Test % inhibition, Ind. CL” value was 29% and the “Inhibition in vitro of the oxygen radical liberation, Chemiluminescence Test % inhibition, Spnt. CL” value turned out to be 54%. In the data set on male mice, the “Minimal toxic dose mg/kg mouse p.o.” value is recorded as above 300 mg/kg. In addition, in data set [2], the inhibition at 100 µM (stock) turned out to be 5%.
In the case of `O=C(c1c(-c2ccccc2)oc2ccccc2c1=O)N1CC[N+]([O-])(Cc2ccccc2)CC1` [Example 5, 3-[(4-benzylpiperazin-1-yl)-carbonyl]-flavone N-oxide], in data set [1], the “Inhibition in vitro of the oxygen radical liberation, Chemiluminescence Test % inhibition, Ind. CL” value turned out to be 25% and the “Inhibition in vitro of the oxygen radical liberation, Chemiluminescence Test % inhibition, Spnt. CL” value was found to be 49%. In the data set with male mice, the “Minimal toxic dose mg/kg mouse p.o.” value is above 300 mg/kg. The inhibition at 100 µM (stock) in data set [2] was determined as 12%.
Take `CCN(CC)CCNC(=O)c1c(-c2ccccc2)oc2ccccc2c1=O` [Example 22b]: in data set [1], the “Inhibition in vitro of the oxygen radical liberation, Chemiluminescence Test % inhibition, Ind. CL” value came out at 43% and the “Inhibition in vitro of the oxygen radical liberation, Chemiluminescence Test % inhibition, Spnt. CL” value stood at 67%. Moreover, the “Minimal toxic dose mg/kg mouse p.o.” value with male mice worked out at 300 mg/kg. In addition, in data set [2], the inhibition at 100 µM (stock) stood at 25%.
For `COc1cc(-c2oc3ccccc3c(=O)c2C(=O)OCCN2CCCC2)cc(OC)c1OC` [Example 49], in that order: 64%, 86%, 300 mg/kg and 41%.
Regarding `O=C(NC1CCN(Cc2ccccc2)CC1)c1c(-c2ccccc2)oc2ccccc2c1=O` [Example 18b], in data set [1], the “Inhibition in vitro of the oxygen radical liberation, Chemiluminescence Test % inhibition, Ind. CL” value worked out at 50% and the “Inhibition in vitro of the oxygen radical liberation, Chemiluminescence Test % inhibition, Spnt. CL” value is on record as 30%. Further, the “Minimal toxic dose mg/kg mouse p.o.” value with male mice amounted to 300 mg/kg. Moreover, the inhibition at 100 µM (stock) in data set [2] worked out at 41%.
`O=C(NCCCCN1CCN(Cc2ccccc2)CC1)c1c(-c2ccccc2)oc2ccccc2c1=O` [Example 23]: in data set [1], the “Inhibition in vitro of the oxygen radical liberation, Chemiluminescence Test % inhibition, Ind. CL” value is 88% and the “Inhibition in vitro of the oxygen radical liberation, Chemiluminescence Test % inhibition, Spnt. CL” value was 95%. The “Minimal toxic dose mg/kg mouse p.o.” value with male mice worked out at 300 mg/kg. For the same compound, the inhibition at 100 µM (stock) in data set [2] was 63%.
